Data on four molecules can be found in article PMC12736951, “Design, Synthesis, and Biological Evaluation of 6″-Modified Apramycin Derivatives to Overcome Aminoglycoside Resistance” (Pharmaceutics, 2025).

The test system of assay [1] is HEK293T human embryonic kidney cell line. The assay is described as follows: Cytotoxicity, MTT test. It counts as cell-based. As to conditions: HEK-293T, 72 h, 2-250 µg/mL, read-out: IC50, viability of HEK293T cells. How it is done: The MTT test was performed in order to evaluate the effect of the compounds on eukaryotic cells’ survivability. Compounds 5a,b, 8a,b, and apramycin, as the reference drug, were tested on HEK293T human embryonic kidney cell line (ATCC). Compounds 5a,b, 8a,b, and apramycin were prepared as water solutions with a 50 mg/mL concentration. The HEK293T cell line was cultivated in DMEM/F-12 medium (Paneco LLC, Moscow, Russia) containing 10% FBS, 50 µg/mL penicillin, and 50 µg/mL streptomycin (Thermo Fisher Scientific, USA) at 37 °C in 5% CO2. Triplicates on 96-well plates were used, and 2500 HEK293T cells were seeded in 140 µL of DMEM/F-12 medium in each well during day one. The next day, compounds in twofold successive dilutions were added to these plates (concentrations in wells ranged between 2 and 250 µg/mL for 5a, 5b, and 8a, 8b). Plates were incubated for 72 h at 37 °C in 5% CO2. Afterwards, 0.5 mg/mL of the MTT reagent (Paneco LLC, Moscow, Russia) was added to each well. After 2 h of incubation, the media with MTT was replaced with 140 µL of DMSO, and all plates were placed on a shaker for 10 min for formazan to dissolve. Finally, the absorbance at a 555 nm wavelength was measured on all plates via the plate reader Victor X5 (PerkinElmer, Waltham, MA, USA). The data were then normalized, and dose–response curves and IC50 were calculated by means of GraphPad Prism version 8.0.2. (GraphPad Software, Inc., San Diego, CA, USA).
(In general: Tetrazolium dyes change colour on reduction, which living cells bring about.)

A further assay has as its system M. smegmatis ATCC 607. The assay can be described thus: MIC, broth microdilution. It counts as cell-based, Mycobacterium smegmatis. The settings on record: Mycolicibacterium smegmatis, ATCC607, Table 1. An excerpt:
The microbial strains used in this study were obtained from the collection of the Gause Institute of New Antibiotics. The control strains included in the analysis were S. aureus ATCC 29213, E. coli ATCC 25922, P. aeruginosa ATCC 27853, M. smegmatis ATCC 607. Clinical isolates E. coli MAR17-1350, K. pneumoniae APEX-5, K. pneumoniae MAR14-3395, and K. pneumoniae MAR18-1752 with multidrug resistance, including resistance to aminoglycosides were kindly provided by the Research Institute of Antimicrobial Chemotherapy (RIAC) of the Smolensk State Medical University, Smolensk. The microbial cultures were stored at −75 °C in trypticase soy broth (Becton, Dickinson, France) containing 10–15% glycerol. Storage was carried out in accordance with CLSI guidelines. Prior to experimentation, the bacterial strains were revived from cryopreservation by inoculating them onto trypticase soy agar (Becton, Dickinson, France) and incubating at (36 ± 1) °C for 16–24 h. Individual morphologically homogeneous colonies were then suspended in sterile physiological saline, and the turbidity of the suspension was adjusted to 0.5 McFarland units using a DEN-1 spectrophotometer (Biosan, Riga, Latvia), which corresponds to a concentration of 1.5 × 10^8 CFU/mL.
The samples were dissolved in sterile distilled water, depending on the physicochemical properties of the compounds under investigation, to a concentration of 10,000 µg/mL. Working solutions were then prepared by serial dilution, resulting in concentrations ranging from 64 µg/mL to 0.125 µg/mL.
Activity was evaluated by determining the minimum inhibitory concentration (MIC) values using the microdilution method in Mueller–Hinton Broth (Beckton and Dickinson, Le Pont-de-Claix, France), in accordance with the standard procedure for assessing the antimicrobial susceptibility of microorganisms.
The analysis was conducted in 96-well microtiter plates (Medpolymer, Saint Petersburg, Russia). The bacterial inoculum was introduced within 15 min of preparation. MIC values were determined after incubation for 15–18 h at (36 ± 1) °C. Microbial growth in the presence of the tested compounds was compared to the growth control (without exposure to the test samples). The MIC was defined as the lowest concentration at which visible microbial growth was inhibited.
To ensure the accuracy of the results, the control antibiotics kanamycin A, gentamycin, and tobramycin (Abcr GmbH, Karlsruhe, Germany) were included, along with standard reference strains: E. coli ATCC 25922. The MIC values for kanamycin A were determined as follows: E. coli ATCC 25922—1–4 µg/mL [22]. For gentamycin, the MIC values were E. coli ATCC 25922–0.25–1 µg/mL [23]. For tobramycin, the MIC values were E. coli ATCC 25922–0.25–1 µg/mL [23]. The MIC values of the reference strains were required to fall within the acceptable ranges specified in [24], provided that standard assay conditions were maintained.
A general note: Broth dilution looks for growth in wells or tubes with falling amounts of substance.

The subject of a further assay is E. coli JW5503 SmR. The assay is described as follows: MIC against transformant carrying ANT(3″). It is filed as cell-based. The settings on record: Escherichia coli, JW5503SMR. How it is done:
(§1) The determination of the MIC values was performed on five strains from the working collection of MSU. E. coli JW5503 [25], which lacked a kanamycin resistance cassette that had been removed as per the method outlined in [26], and a strain derived from this strain through in vitro selection with kanamycin. […] Strains containing AG-modifying enzymes were obtained through the transformation of E. coli JW5503 with plasmids that carried cassettes of resistance, namely pCRISPomyces-2–AAC(3)-IV (Addgene #61737), pdualrep2–APH(3′)-II [27] and pt67–ANT(3″). The MIC determination was performed as described for JW5503 in [19].

Assay [2] concerns E. coli JW5503 EF-G P610T. The assay is described as follows: MIC against aminoglycoside-resistant EF-G mutant. The settings on record: Escherichia coli. It is filed as cell-based. How it is done: as §1
For another assay, the system named is E. coli JW5503 ApmR. The assay is described as follows: MIC against transformant carrying AAC(3)-IV. As to conditions: Escherichia coli, JW5503APMR. It is filed as cell-based. How it is done: as §1

For `CNC1C(OC2OC(CNCCN)C(N)C(O)C2O)OC2CC(N)C(OC3C(N)CC(N)C(O)C3O)OC2C1O` (centres unmarked) [Compound 5a, 6″-((2-Aminoethyl-1)-amino)-6″-deoxyapramycin acetate], in assay [1], the half-maximal inhibitory concentration (IC50) (usually the concentration needed to halve the response being measured) came out at 243 ± 7 µg/mL. Besides, the MIC – broadly, the smallest concentration in the dilution series that meets the test's criterion for growth inhibition – with M. smegmatis ATCC 607 was 0.25 µg/mL; with E. coli JW5503 SmR, 32 µg/mL; in assay [2], 32 µg/mL; with E. coli JW5503 ApmR, above 256 µg/mL.

As for `CNC1C(OC2OC(CNCCCN)C(N)C(O)C2O)OC2CC(N)C(OC3C(N)CC(N)C(O)C3O)OC2C1O` (centres unmarked) [Compound 5b, 6″-((3-Aminopropyl-1)-amino)-6″-deoxyapramycin acetate], the IC50 in assay [1] was above 250 µg/mL. Moreover, the MIC against M. smegmatis ATCC 607 was 0.25 µg/mL; against E. coli JW5503 SmR, 32 µg/mL; in assay [2] it was 64 µg/mL; with E. coli JW5503 ApmR, above 256 µg/mL.

Take `CNC1C(OC2OC(CNCCNC(=N)N)C(N)C(O)C2O)OC2CC(N)C(OC3C(N)CC(N)C(O)C3O)OC2C1O` (centres unmarked) [Compound 8a, 6″-((2-Guanidinoethyl-1)-amino)-6″-deoxyapramycin acetate]: the IC50 in assay [1] is above 250 µg/mL. In addition, the MIC in the assay with M. smegmatis ATCC 607 was 0.125 µg/mL; against E. coli JW5503 SmR it was 16 µg/mL; in assay [2], 32 µg/mL; in the assay on E. coli JW5503 ApmR, above 256 µg/mL.

For the molecule `CNC1C(OC2OC(CNCCCNC(=N)N)C(N)C(O)C2O)OC2CC(N)C(OC3C(N)CC(N)C(O)C3O)OC2C1O` (centres unmarked) [Compound 8b, 6″-((3-Guanidinopropyl-1)-amino)-6″-deoxyapramycin acetate], in assay [1], the 50% inhibitory concentration (IC50) is above 250 µg/mL. Further, the minimal inhibitory concentration (MIC) was 0.125 µg/mL in the assay on M. smegmatis ATCC 607, 32 µg/mL in the assay with E. coli JW5503 SmR, 64 µg/mL in assay [2] and above 256 µg/mL against E. coli JW5503 ApmR.
